Measured values as given in ChEMBL document CHEMBL4732254, “Novel monocyclic amide-linked phenol derivatives without mitochondrial toxicity have potent uric acid-lowering activity” (Bioorg Med Chem Lett, 2021).
Active and inactive are the calls of the source. The calls are words filed in the database; no cut-off is given here.

Legend:
[1] = target: T1, Solute carrier family 22 member 12 (Homo sapiens, UniProt Q96S37); experiment: Inhibition of URAT1 (unknown origin)-mediated uric acid uptake at 3 uM relative to control
T1 sequence (Q96S37 whole entry): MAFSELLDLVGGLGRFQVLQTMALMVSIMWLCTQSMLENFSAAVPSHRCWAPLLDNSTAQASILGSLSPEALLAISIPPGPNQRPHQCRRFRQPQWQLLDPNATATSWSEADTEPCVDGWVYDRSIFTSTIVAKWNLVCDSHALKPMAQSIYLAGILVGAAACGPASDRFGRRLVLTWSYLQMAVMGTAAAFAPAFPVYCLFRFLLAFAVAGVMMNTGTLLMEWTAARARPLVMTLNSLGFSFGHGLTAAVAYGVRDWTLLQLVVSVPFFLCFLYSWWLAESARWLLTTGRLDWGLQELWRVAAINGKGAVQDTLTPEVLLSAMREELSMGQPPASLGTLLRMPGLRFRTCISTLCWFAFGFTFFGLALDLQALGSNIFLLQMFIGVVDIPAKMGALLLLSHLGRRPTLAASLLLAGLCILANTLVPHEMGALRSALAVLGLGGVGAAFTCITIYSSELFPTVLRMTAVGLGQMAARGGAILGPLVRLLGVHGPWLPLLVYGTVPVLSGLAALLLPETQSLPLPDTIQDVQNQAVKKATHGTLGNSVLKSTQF

[2] = Inhibition of uric acid uptake in human RPTEC; assay type: functional, tissue-based
[3] = Hepatotoxicity assessed as induction of mitochondrial (unknown origin) toxicity by measuring mitochondrial inhibitory activity at 100 uM relative to control; settings: mitochondria (unknown origin)
Cytochrome P450 2C9 = Cytochrome P450 2C9 (Homo sapiens, UniProt P11712); experiment: Inhibition of CYP2C9 (unknown origin); assay type: ADME
[4] = Drug excretion in rat urine at 3 mg/kg, po measured for 4 hrs; assay type: ADME, organism-based; settings: read-out: Drug excretion
[5] = Cmax in rat at 3 mg/kg, po; assay type: ADME, organism-based; set-up: route oral, dose 3 mg/kg; settings: in vivo
Sapajus apella = experiment: Uricosuric activity in Cebus apella assessed as decrease in plasma urate level at 300 mg/kg, po measured for 24 hrs; assay type: functional, organism-based
[6] = Hepatotoxicity assessed as induction of mitochondrial (unknown origin) toxicity by measuring mitochondrial inhibitory activity; settings: mitochondria (unknown origin)

Chain of Cytochrome P450 2C9 (P11712 whole entry): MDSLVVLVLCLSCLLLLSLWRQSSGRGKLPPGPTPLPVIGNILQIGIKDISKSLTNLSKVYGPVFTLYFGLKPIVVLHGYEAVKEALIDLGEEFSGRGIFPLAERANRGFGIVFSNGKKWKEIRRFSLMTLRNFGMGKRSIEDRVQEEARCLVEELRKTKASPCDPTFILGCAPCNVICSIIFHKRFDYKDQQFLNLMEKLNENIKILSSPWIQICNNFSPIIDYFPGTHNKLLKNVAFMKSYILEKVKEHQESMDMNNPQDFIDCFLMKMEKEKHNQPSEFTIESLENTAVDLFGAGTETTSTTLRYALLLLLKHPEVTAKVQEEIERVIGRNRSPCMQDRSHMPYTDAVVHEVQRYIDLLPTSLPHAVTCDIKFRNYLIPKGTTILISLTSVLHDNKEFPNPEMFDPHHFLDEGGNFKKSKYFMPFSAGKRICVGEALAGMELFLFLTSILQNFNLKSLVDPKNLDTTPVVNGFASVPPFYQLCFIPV

inhibition at 3 µM [1] [%]	IC50 [2] [µM]	IC50 (Cytochrome P450 2C9) [µM]	dose excreted at 4 h [4] [%]	Cmax [5] [ng/mL]	Compound	inhibition at 100 µM [3] [%]	Activity (Sapajus apella)	IC50 [6] [µM]
69	747	–	–	–	N#Cc1cc(C(=O)N2CC=CC2)cc(Br)c1O	0	–	–
75	> 1000	–	–	–	N#Cc1cc(C(=O)N2CCC2)cc(C(F)(F)F)c1O	17	–	–
84	202	> 100	9	3700	N#Cc1cc(C(=O)N2CCSC2)cc(C(F)(F)F)c1O	29	–	–
83	818	52	23	2610	N#Cc1cc(C(=O)N2CC=CC2)cc(C(F)(F)F)c1O	-1	Active	–
69	> 1000	–	–	–	N#Cc1cc(C(=O)N2CC=CC2)cc(C2CC2)c1O	-7	–	–
25	> 1000	–	–	–	Cc1cc(C(=O)N2CC=CC2)cc(C#N)c1O	-10	–	–
88	137	94	10	2220	CC1=CCN(C(=O)c2cc(C#N)c(O)c(C(F)(F)F)c2)C1	9	–	–
55	272	–	–	–	N#Cc1cc(C(=O)N2CCS(=O)(=O)C2)cc(C(F)(F)F)c1O	-3	–	–
67	124	–	9.5	–	CCc1cc(C(=O)N2CCSC2)cc(C#N)c1O	25	–	–
58	> 1000	–	–	–	CSc1cc(C(=O)N2CC=CC2)cc(C#N)c1O	6	–	–
–	–	–	–	–	O=C(C1=CCCC1)c1cc(Br)c(O)c(Br)c1	–	–	6.6
83	> 1000	–	–	–	CCc1cc(C(=O)n2cccc2)cc(C#N)c1O	–	–	6.7
54	> 1000	–	–	–	CCc1cc(C(=O)N2CC=CC2)cc(C#N)c1O	17	–	> 100
49	903	–	–	–	CCCc1cc(C(=O)N2CC=CC2)cc(C(F)(F)F)c1O	47	–	–
92	311	–	–	–	CC(C)(C)c1cc(C(=O)N2CC=CC2)cc(C#N)c1O	60	–	64
–	–	5.7	–	–	O=C(c1cc(Cl)c(O)c(Cl)c1)N1CS(=O)(=O)c2ccccc21 [DOTINURAD]	–	–	–
66	> 1000	–	–	–	N#Cc1cc(C(=O)N2CCCC2)cc(C(F)(F)F)c1O	18	–	–
79	> 1000	–	–	–	N#Cc1cc(C(=O)N2CC=CC2)cc(I)c1O	8	–	–
–	–	–	–	–	O=C(c1cc(Br)c(O)c(Br)c1)N1CC=CC1	22	–	> 100
72	401	–	–	–	N#Cc1cc(C(=O)N2CCSC2)cc(Br)c1O	23	–	–
71	> 1000	–	–	–	CC(C)(C)c1cc(C(=O)N2CCC2)cc(C#N)c1O	41	–	–
92	257	–	–	–	CC(C)(C)c1cc(C(=O)N2CCSC2)cc(C#N)c1O	77	–	27
–	–	–	–	–	O=C(C1=CCCC1)c1cc(Cl)c(O)c(Cl)c1	–	–	10
62	614	–	–	–	N#Cc1cc(C(=O)N2CCSC2)cc(C#N)c1O	23	–	–
66	> 1000	–	–	–	N#Cc1cc(C(=O)N2CC=CC2)cc(Cl)c1O	5	–	–
70	> 1000	–	–	–	CCCc1cc(C(=O)N2CC=CC2)cc(C#N)c1O	7	–	–
84	> 1000	–	–	–	CC(C)(C)c1cc(C(=O)N2CCCC2)cc(C#N)c1O	22	–	> 100

Compound	inhibition at 3 µM [1] [%]	IC50 [2] [µM]	IC50 (Cytochrome P450 2C9) [µM]	dose excreted at 4 h [4] [%]	Cmax [5] [ng/mL]	inhibition at 100 µM [3] [%]	Activity (Sapajus apella)	IC50 [6] [µM]
CCc1oc2ccccc2c1C(=O)c1cc(Br)c(O)c(Br)c1 [BENZBROMARONE]	91	6.8	–	–	–	–	–	3.1
